{"source": "patent US12268665B2", "about": "“Combination of immunotherapies with MDM2 inhibitors” (ASCENTAGE PHARMA (SUZHOU) CO., LTD., priority 2018, dated 2025)", "key": {"[1]": {"test_system": "MH-22A syngeneic tumor model", "assay": "Efficacy in the TIL analysis study, MH-22A model (d7)", "assay_type": "in vivo, mouse", "details": "APG-115 10 mg/kg p.o. q2d; anti-PD-1 5 mg/kg i.p. biw; epacadostat 100 mg/kg p.o. bid; × 6 d", "method": "Each mouse was inoculated subcutaneously at the right flank region with MH-22A tumor cells (5×10^6) in 0.2 mL of PBS for tumor development. The treatments were started when the mean tumor size reached 60 mm^3. The test articles were administered to the tumor-bearing mice according to the regimen shown in the experimental design Table 6. The day of start dosing was defined as d1.\nMice bearing MH-22A murine hepatoma tumors were treated with various agent(s) under different regimens as indicated. Isotype control antibody was included in the control."}, "[2]": {"assay": "Pharmacokinetic (PK) analysis in MH-22A tumor-bearing mice (LC/MS/MS)", "assay_type": "in vivo, mouse", "details": "for concentration at 4 h: oral", "method": "The quantitative LC/MS/MS analysis was conducted using an Exion HPLC system (AB Sciex, Ontario, Canada) coupled to an API 5500 mass spectrometer (AB Sciex, Ontario, Canada) equipped with an API electrospray ionization (ESI) source. The Phenomenex Titank phenyl-Hexyl column (50 mm×2.1 mm, 5 μm particle size) was used to achieved HPLC separation. The injection volume was 2 μl and the flow rate was kept constantly at 0.5 ml/min. Chromatography was performed with mobile phase A, acetonitrile:water:formic (5:95:0.1, by volume) and B, acetonitrile:water:formic (95:5:0.1, by volume). The mass spectrometer was operated at ESI positive ion mode for APG-115 while ESI negative mode for epacadostat. The detection of the ions was performed in the multiple reaction monitoring (MRM) mode, monitoring the transition of m/z 642.0→246.1 and 271.1→172.0 for APG-115 and IS (tolbutamide) in positive mode, 435.9→338.8 and 269.2→169.2 for epacadostat and IS (tolbutamide) in negative mode, respectively. Compounds parameters, declustering potential (DP), collision energy (CE) were 51, 61 V, 80, 18 V for APG-115 and IS in positive mode, −61, −15 V and −90, −23.5 V for epacadostat and IS in negative mode, respectively.\nBlood and tumor samples were collected from 5 mice/group in group-1, group-2, group-3 and group-5 4 hrs after the final dose on […]. Blood samples were collected from 5 mice/group in group-4, group-6, group-7 and group-8 4 hrs after the final dose on d29. Approximately 100 μl blood were collected in EDTA-2K tube and 50 μl plasma were collected for PK analysis. All samples were stored at −80° C. until analysis.\nIn efficacy study of Example 2.1, mice in vehicle, APG-115 10 mg/kg and 50 mg/kg, and epacadostat single-agent groups were euthanized on d15 as described above. To assess PK characteristics of APG-115 and epacadostat in this study, plasma and tissue samples were collected 4 h after the last dosing on d15."}, "[3]": {"test_system": "advanced soft tissue sarcoma and other solid tumors", "assay": "Phase I study CTR20170975: antitumor activity", "assay_type": "in vivo, human", "method": "(§1) Patients with advanced soft tissue sarcoma (STS), adenoid cystic carcinoma (ACC) or other solid tumors in China (CTR20170975) were treated with APG-115. In dose escalation, patients received APG-115 (100-200 mg) orally QOD for first 21 days of a 28-day cycle, until disease progression. Study objectives include safety (primary endpoint), pharmacokinetics (PK), pharmacodynamics (PD), and antitumor activity assessed every 8 weeks.\n(§2) This is a Phase I study (CTR20170975) is designed to assess the safety, dose-limiting toxicities (DLT), the maximum tolerated dose (MTD)/recommended phase 2 dose (RP2D), pharmacokinetics (PK), pharmacodynamics (PD) profile and anti-tumor activity of orally administered APG-115 in Chinese patients with advanced soft tissue sarcoma and other solid tumors.\nAmong of the 14 patients, post baseline tumor measurements were obtained in 13 patients, as one subject was just starting the treatment of Cycle 2."}, "[4]": {"test_system": "serum MIC-1 (PD marker of TP53 activation)", "assay": "Phase I study CTR20170975: pharmacodynamics", "assay_type": "in vivo, human", "method": "as §1, §2"}, "[5]": {"assay": "Phase I study APG-115-US-001 (NCT02935907): safety", "assay_type": "in vivo", "method": "(§3) This Phase I study (APG-115-US-001) was designed to assess safety, toxicity, pharmacokinetics (PK), pharmacodynamics (PD), and antitumor activity of APG-115 orally in patients with advanced solid tumors in US (NCT02935907).\nFor Safety study of APG-115, the safety evaluation included vital signs, electrocardiogram (ECG) parameters, Easter Cooperative Oncology Group (ECOG) performance status data, clinical laboratory tests and adverse event data. Safety assessments were performed in each treatment cycle.\nSingle dose escalation study was conducted. A standard “3+3” design was employed to determine the maximum tolerated dose (MTD) of APG-115 by assessing the dose limiting toxicity (DLT) of APG-115. […] of APG-115 was tested: 10, 20, 50, 100, 200, and 300 mg. APG-115 was administrated orally every other day (QOD) for a consecutive 3 weeks (i.e. dosed at Day 1, 3, 5, 7, 9, 11, 13, 15, 17, 19, and 21), with one week dosing off as 4-weeks a cycle. […] The scheme of the trial design is provided below."}, "[6]": {"assay": "Phase I study APG-115-US-001: pharmacokinetics (LC/MS/MS, K2EDTA human plasma)", "assay_type": "in vivo", "details": "dose range of 20-300 mg", "method": "For PK study of APG-115, APG-115 in K2EDTA human plasma was determined using an LC/MS/MS method using D5-APG-115 as the internal standard (IS). APG-115 and the IS were extracted using protein precipitation extraction from human plasma. […] MS/MS detection was set at mass transitions of m/z 642.3→246.3 for APG-115 and m/z 647.4→246.1 for D5-APG-115 (IS) in TIS positive mode."}, "[7]": {"test_system": "serum MIC-1 (PD marker of TP53 activation)", "assay": "Phase I study APG-115-US-001: pharmacodynamics", "assay_type": "in vivo, human", "details": "within the dose range tested", "text": "as §3"}}, "note": "Where two headings read alike, the source gives them in different places.", "data": [{"smiles": "CCN1[C@@H](C(=O)NC23CCC(C(=O)O)(CC2)CC3)[C@H](c2cccc(Cl)c2F)[C@]2(C(=O)Nc3cc(Cl)ccc32)C12CCCCC2", "note": "[APG-115]", "values": [{"measurement": "RTV (Mean) d7", "setting": "[1]", "value": 12.8}, {"measurement": "T/C (%) d7", "setting": "[1]", "value": 83, "unit": "%"}, {"measurement": "increases in systemic exposure and tissue distribution with dose", "setting": "[2]; 10 vs 50 mg/kg", "value": "approximately dose proportional"}, {"measurement": "pharmacokinetic interaction with anti-PD-1 antibody", "setting": "[2]; mouse, in vivo", "value": "no apparent pharmacokinetic interaction"}, {"measurement": "concentration at 4 h", "setting": "[2]; mouse, plasma, 10 mg/kg, 10 mg/kg daily oral for 15 days, single agent, 4 h after last dosing, read-out: plasma concentration of APG-115", "value": 157, "unit": "ng/mL"}, {"measurement": "concentration at 4 h", "setting": "[2]; mouse, plasma, 10 mg/kg, 10 mg/kg in combination with anti-PD-1, read-out: plasma concentration of APG-115", "value": 120, "unit": "ng/mL"}, {"measurement": "concentration at 4 h", "setting": "[2]; mouse, plasma, 50 mg/kg, 50 mg/kg daily oral for 15 days, single agent, 4 h after last dosing, read-out: plasma concentration of APG-115", "value": 1230, "unit": "ng/mL"}, {"measurement": "concentration at 4 h", "setting": "[2]; mouse, plasma, 50 mg/kg, 50 mg/kg in combination with anti-PD-1, read-out: plasma concentration of APG-115", "value": 2150, "unit": "ng/mL"}, {"measurement": "concentration at 4 h", "setting": "[2]; mouse, tumor, 10 mg/kg, 10 mg/kg as single agent, read-out: APG-115 concentration in tumor tissues", "value": 152, "unit": "ng/g"}, {"measurement": "concentration at 4 h", "setting": "[2]; mouse, tumor, 50 mg/kg, 50 mg/kg as single agent, read-out: APG-115 concentration in tumor tissues", "value": 1470, "unit": "ng/g"}, {"measurement": "target lesion decrease in the PR patient", "setting": "[3]; 150 mg, after 4 months withdraw, RECIST", "value": "~64", "unit": "%"}, {"measurement": "confirmed PR (Partial Response), patients", "setting": "[3]; 150 mg, lipomatoid liposarcoma, TP53-WT and MDM2 Amp", "value": 1}, {"measurement": "partial response, patients", "setting": "[3]; 150 mg, liposarcoma with MDM2 amplification and TP53 wt (Example 5)", "value": 1}, {"measurement": "patients with SD as the best overall response", "setting": "[3]; 13 patients (Example 5)", "value": 5}, {"measurement": "serum MIC-1 levels", "setting": "[4]; APG-115 doses ≥100 mg, preliminary", "value": "elevated from individual baseline"}, {"measurement": "MIC-1 increase", "setting": "[4]; within the dose range tested (Example 5)", "value": "exposure dependent"}, {"measurement": "Serum MIC-1 increase", "setting": "[4]; within the dose range tested (Example 8)", "value": "exposure dependent"}, {"measurement": "MTD/RP2D of APG-115 monotherapy", "setting": "[5]; QOD 3 weeks on, 1 week off", "value": 100, "unit": "mg"}, {"measurement": "pts discontinued treatment: Adverse Event", "setting": "[5]; human, in vivo", "value": 3}, {"measurement": "DLTs observed during cycle 1", "setting": "[5]; in vivo", "value": "Four"}, {"measurement": "events determined as DLTs", "setting": "[5]; in vivo", "value": "Platelet count decreased, fatigue, and nausea"}, {"measurement": "patients with Absolute neutrophil count decreased (less than 1.00×10^3/uL) after C2D21", "setting": "[5]; in vivo", "value": "three patients"}, {"measurement": "AUC and Cmax versus dose", "setting": "[6]", "value": "generally increase dose proportionally"}, {"measurement": "Serum MIC-1 increase", "setting": "[7]", "value": "exposure dependent"}]}]}
